In ChEMBL document CHEMBL5230101, “Unique Domain for a Unique Target: Selective Inhibitors of Host Cell DDX3X to Fight Emerging Viruses” (J Med Chem, 2020):
Activity calls are given as the source filed them. No cut-off for these calls is given here.

Key:
[1] = molecular target: ATP-dependent RNA helicase DDX3X (Homo sapiens) (UniProt O00571); test: Inhibition of human recombinant full length DDX3X helicase activity expressed in Escherichia coli using dsRNA as substrate measured after 40 mins by FRET assay
[2] = test system: Huh-7; test: Cytotoxicity against human Huh-7 cells incubated for 3 days by MTT assay; format: functional; details: Huh-7, 72 h, time 3 day
[3] = test system: West Nile virus; test: Antiviral activity against WNV infected in human Huh-7 cells preincubated with cells for 1 hr and measured after 4 days by plaque reduction assay; format: functional, organism-based
[4] = test system: Huh-7; test: Cytotoxicity against human Huh-7 cells incubated for 72 hrs by Cell Titer-Glo luminescence assay; format: functional
[5] = test system: dengue virus type 2; test: Antiviral activity against DENV2 New Guinea C strain infected in human Huh-7 cells measured after 72 hrs by immunodetection assay; format: functional, organism-based; details: Huh-7, 72 h
[6] = organism: Homo sapiens; test: Inhibition of human recombinant full length DDX3X R262A mutant helicase activity using dsRNA as substrate measured after 40 mins by FRET assay
[7] = test system: Hepacivirus hominis; test: Inhibition of Hepatitis C virus NSP 3 helicase activity
[8] = test system: Arabidopsis thaliana; test: Inhibition of Arabidopsis thaliana STRS2 helicase activity
[9] = organism: Homo sapiens; test: Inhibition of human recombinant full length DDX3X E256A mutant helicase activity using dsRNA as substrate measured after 40 mins by FRET assay
[10] = molecular target: T1, ATP-dependent RNA helicase DDX1 (Homo sapiens) (UniProt Q92499); test: Inhibition of human DDX1 helicase activity
T1 sequence (whole entry): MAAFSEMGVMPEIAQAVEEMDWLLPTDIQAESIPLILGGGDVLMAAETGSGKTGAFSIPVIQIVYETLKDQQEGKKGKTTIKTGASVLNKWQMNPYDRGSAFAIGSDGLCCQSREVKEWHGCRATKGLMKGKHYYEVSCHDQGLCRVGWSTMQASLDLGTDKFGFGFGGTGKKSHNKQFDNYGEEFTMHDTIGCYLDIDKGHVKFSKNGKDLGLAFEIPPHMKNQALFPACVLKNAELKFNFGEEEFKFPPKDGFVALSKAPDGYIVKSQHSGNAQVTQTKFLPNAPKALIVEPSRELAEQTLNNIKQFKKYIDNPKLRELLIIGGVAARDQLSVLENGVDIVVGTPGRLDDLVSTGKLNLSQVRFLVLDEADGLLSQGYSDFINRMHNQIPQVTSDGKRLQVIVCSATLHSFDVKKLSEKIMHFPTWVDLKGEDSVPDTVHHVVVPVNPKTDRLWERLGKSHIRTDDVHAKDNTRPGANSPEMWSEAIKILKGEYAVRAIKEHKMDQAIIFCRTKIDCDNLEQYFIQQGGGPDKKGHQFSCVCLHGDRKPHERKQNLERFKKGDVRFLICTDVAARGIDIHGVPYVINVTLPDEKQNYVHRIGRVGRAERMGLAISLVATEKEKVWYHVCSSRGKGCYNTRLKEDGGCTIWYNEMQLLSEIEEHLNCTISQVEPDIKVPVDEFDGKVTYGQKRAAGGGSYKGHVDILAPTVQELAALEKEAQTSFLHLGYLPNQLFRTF

ATP-dependent RNA helicase DDX3X (Homo sapiens), sequence (O00571 2-662 limits assumed): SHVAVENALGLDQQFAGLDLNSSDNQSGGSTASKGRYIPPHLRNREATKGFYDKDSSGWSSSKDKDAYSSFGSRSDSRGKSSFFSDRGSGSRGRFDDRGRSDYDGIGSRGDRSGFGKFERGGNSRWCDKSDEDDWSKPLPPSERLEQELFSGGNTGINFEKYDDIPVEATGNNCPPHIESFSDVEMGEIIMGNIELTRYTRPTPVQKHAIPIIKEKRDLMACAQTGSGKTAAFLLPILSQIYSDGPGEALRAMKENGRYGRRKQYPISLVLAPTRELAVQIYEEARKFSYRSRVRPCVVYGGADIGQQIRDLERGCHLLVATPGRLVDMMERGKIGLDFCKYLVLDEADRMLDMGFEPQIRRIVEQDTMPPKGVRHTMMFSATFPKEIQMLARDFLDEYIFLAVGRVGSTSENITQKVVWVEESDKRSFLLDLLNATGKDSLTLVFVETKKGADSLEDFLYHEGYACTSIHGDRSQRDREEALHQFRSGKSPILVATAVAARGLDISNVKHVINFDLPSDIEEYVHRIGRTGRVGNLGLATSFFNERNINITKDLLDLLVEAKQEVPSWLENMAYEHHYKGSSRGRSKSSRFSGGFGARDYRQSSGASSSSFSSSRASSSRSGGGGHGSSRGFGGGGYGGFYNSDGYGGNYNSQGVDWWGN

SMILES: Nc1ccc(Nc2nc3ccccc3[nH]2)cc1
- ID50 [1]: inactive

SMILES: CNC(=O)N1c2ccccc2CCc2ccccc21
- ID50 [1]: inactive

SMILES: CC(=O)N1c2ccccc2CCc2cc([N+](=O)[O-])ccc21
- ID50 [1]: inactive

SMILES: NC(=O)c1ncn([C@@H]2O[C@H](CO)[C@@H](O)[C@H]2O)n1 [RIBAVIRIN]
- CC50 [2]: > 100 µM
- IC50 [3]: 91.5 µM
- CC50 [4]: > 100 µM

SMILES: Nc1ccc(S(=O)(=O)c2ccccc2)cc1
- ID50 [1]: 200 µM

SMILES: CCOC(=O)Nc1ccc2c(c1)N(C(=O)CCN(CC)CC)c1ccccc1CC2
- ID50 [1]: inactive

SMILES: CC(N)Cc1cn(Cc2ccccc2)c2ccccc12 (stereo not drawn)
- ID50 [1]: inactive

SMILES: NC[C@@H](O)CN(c1ccccc1)c1ccccc1
- IC50 [5]: 6.3 µM
- ID50 [6]: 0.004 µM
- CC50 [2]: > 100 µM
- IC50 [3]: 0.88 µM
- ID50 [7]: > 100 µM
- ID50 [8]: > 100 µM
- ID50 [9]: 0.3 µM
- ID50 [1]: 0.006 µM
- CC50 [4]: 79 µM
- ID50 [10]: 58 µM

SMILES: NC[C@H](O)CN(c1ccccc1)c1ccccc1
- IC50 [5]: 12.6 µM
- CC50 [2]: > 100 µM
- IC50 [3]: 0.9 µM
- ID50 [1]: 0.007 µM
- CC50 [4]: 120 µM

SMILES: NCC(O)CN(c1ccccc1)c1ccccc1 (racemic) [listing 1 of 2 here]
- ID50 [6]: 0.001 µM
- ID50 [7]: > 100 µM
- ID50 [8]: > 100 µM
- ID50 [9]: 73 µM
- ID50 [1]: 0.002 µM
- ID50 [10]: 18 µM

SMILES: OC(C#CCN1CCCCC1)(c1ccccc1)c1ccccc1
- ID50 [1]: inactive

SMILES: NCC(O)CN(c1ccccc1)c1ccccc1 (racemic) [listing 2 of 2 here]
- IC50 [5]: 7.9 µM
- CC50 [2]: > 100 µM
- IC50 [3]: 2.3 µM
- CC50 [4]: 100 µM

SMILES: COc1ccc(CN)cc1Cn1cccn1
- ID50 [1]: inactive

SMILES: NCC(O)CN(c1ccccc1)c1ccccc1 (stereo not drawn)
- ID50 [1]: 0.7 µM

SMILES: CC1CC(C)CN(S(=O)(=O)c2ccc(N)cc2)C1 (stereo not drawn)
- ID50 [1]: inactive
